Laboratory results: patent US5656591A, “Antimicrobial agents and method for treating products therewith” (Morinaga Milk Industry Co., Ltd., priority 1992, dated 1997)

Key:
[1] = test system: Staphylococcus aureus (JCM-2151); assay: Viability assay (survival rate) in cow's milk medium; type: cell-based; parameters: key to survival rate: % of control colony count 1 (control colony count 2 at peptide 0); details: for antimicrobial activity of the compound added without antimicrobial peptide or lactoferrin hydrolysate (in words): compound alone; for effect of the coexisting compound on the antimicrobial activity of the lactoferrin hydrolysate (in words): with lactoferrin hydrolysate 1
Method: The colonies grown on the culture medium were scraped by a platinum loop and cultivated in 1% peptone (by Difco Company) culture medium for several hours at 37° C., and the resultant microbial culture at logarithmic phase was used as the preculture in a serial concentration of 3×10^8 /ml.
A quantity of the resultant solutions of the samples were selectively mixed with a quantity of the basal medium, thereby test media for the respective tests were prepared in the combinations and eventual concentrations as specified in the respective tests.
Utilizing the samples (5), (7), (8), (9), (10), (14), (15), (17), (18) and (19), test media were prepared in the same manner as in the preparation of the test media containing sample (3) and the like, except that the aqueous solution (in the cases of samples (5) and (7), aqueous suspensions) were not dealt with sterilization filters.
To 2 ml aliquots of test media prepared in (3-1) (supra), […] aliquots of the preculture of Staphylococcus aureus prepared in (1) (2. Method, supra) were added, then incubated at 37° C. for 1 hour, 200 μl aliquots of the resultant cultures were taken out and diluted with 1% peptone solution in a series of 10^n respectively, 110 μl aliquots of the resultant dilution series were spread onto plates of standard agar culture medium, and after incubation at 37° C. for 24 hours the number of colonies grown on the plates were counted (Test. Colony Count).
Control coloney counts 1 were determined in the same manner as in the determination of the test coloney counts, except that […] aliquots of the preculture of Staphylococcus aureus prepared in (1) (2. Method, supra) were added to 2 ml aliquots of the respective control media 1 prepared in (3-2) (supra). Furthermore, control coloney counts 2 were determined in the same manner as in the determination of the test coloney counts, except that […] aliquots of the preculture of Staphylococcus aureus prepared in (1) (supra) were added to 2 ml aliquots of the respective control media 1 prepared in (3-2) (supra).
Survival rate 1=(Test Colony Count/Control Colony Count 1)×100
Survival rate 2=(Control Colony Count 2/Control Colony Count 1)×100
(Note: In the tables shown hereinafter, vulues of survival rate 2 are indicated in the row where the concentration of antimicrobial peptide or lactoferrin hydrolysate is 0.)

[2] = test system: methicillin-resistant Staphylococcus aureus (wild type); assay: Viability assay in Mueller-Hington Broth on antibiotics-resistant microorganism; type: cell-based
Method: Precultures of test microorganisms to be used in the tests described hereunder were prepared in such a manner that: from the frozen preservation of dispersions of test microorganisms, a loop of the respective strains of the microorganisms were taken out and spread onto TRI PETIT CASE SOYA AGAR MEDIA (by BBL Company), and incubated at 37° C. for 16 hours; the colonies grown on the culture media were scraped by a platinum loop and cultivated in 2.1% Mueller-Hington Broth (by Difco Company) respectively for several hours at 37° C. The resultant microbial cultures at logarithmic phase in 3×10^8 /ml of microbial concentration were used as the precultures.
The test media to be used in the respective tests were prepared in such a manner that: aqueous solutions in a predetermined concentration of the lactoferrin hydrolysates or the lactoferrin-derived antimicrobial peptides of (1) and (2) in Preparation of Samples (supra), as well as the samples of antibiotics of (3) (supra) were respectively sterilized with filters (by Advantec Company); then a quantity of the resultant solutions of respective samples were selectively added to a quantity of basal medium (Mueller-Hington Broth) prepared in the eventual concentration of 2.1%, thereby combinations of the samples and their concentrations in the respective test media were adjusted as specified in the respective tests. […]

[3] = with antimicrobial peptide Seq. ID No. 27
[4] = with antimicrobial peptide Seq. ID No. 26

Molecule | antimicrobial activity of the compound added without antimicrobial peptide or lactoferrin hydrolysate (in words) [1] | effect of the coexisting compound on the antimicrobial activity of the antimicrobial peptide (in words) [1, 4] | effect of the coexisting compound on the antimicrobial activity of the lactoferrin hydrolysate (in words) [1] | other results
N[C@@H](CS)C(=O)O [L-cysteine, L-Cysteine] | antimicrobial activity was low | – | – | effect of the coexisting compound on the antimicrobial activity of the antimicrobial peptide (in words) [1, 3]: augments the antimicrobial activity of the peptide
CCCCCCCCCCCCCC(=O)OCC(O)CO (racemic) [1-monomyristoyl-rac-glycerol, 1-monomyristoyl-rac-Glycerol] | the antimicrobial activity is low | augmented the antimicrobial activity of the peptide | – | –
O=C([O-])CN(CCN(CC(=O)[O-])CC(=O)O)CC(=O)O.[Na+].[Na+] [EDTA.Na2, EDTA·Na2] | no antimicrobial activity was observed | – | augments the antimicrobial activity of the lactoferrin hydrolysate | survival rate ([1]; Test 9: lactoferrin hydrolysate 0, EDTA.Na2 0.1 mg/ml): 122; survival rate ([1]; Test 9: lactoferrin hydrolysate 0, EDTA.Na2 1 mg/ml): 115; survival rate ([1]; Test 9: lactoferrin hydrolysate 0, EDTA.Na2 5 mg/ml): 101
C[C@H](CCC(=O)O)[C@H]1CC[C@H]2[C@@H]3[C@H](O)C[C@@H]4C[C@H](O)CC[C@]4(C)[C@H]3C[C@H](O)[C@]12C [cholic acid, Cholic Acid] | no antimicrobial activity was observed | further augments the antimicrobiaI activity of the peptide | augments the antimicrobial activity of the lactoferrin hydrolysate 1 | survival rate ([1]; Test 22: peptide 0, 1-monolauroyl-rac-glycerol 0, cholic acid 1 mg/ml): 92%
tocopherol | no antimicrobial activity was observed | augments the antimicrobial activity of the peptide | – | survival rate ([1]; Test 3: peptide 0, tocopherol 0.1 mg/ml): 101; survival rate ([1]; Test 3: peptide 0, tocopherol 0.5 mg/ml): 113; survival rate ([1]; Test 3: peptide 0, tocopherol 1 mg/ml): 112
CCO [ethyl alcohol, Ethyl Alcohol] | no antimicrobial activity was observed | potentiates the antimicrobial activity of the peptide | – | –
CCCCCCCC(=O)OCC(O)CO (racemic) [monocapryloyl-glycerol, 1-Monocapryloyl-rac-Glycerol] | no antimicrobial activity was observed | augments the antimicrobial activity of the peptide | – | –
CN(C)c1ccc(O)c2c1C[C@H]1C[C@H]3[C@H](N(C)C)C(O)=C(C(N)=O)C(=O)[C@@]3(O)C(O)=C1C2=O [minomycin] | – | – | – | survival rate ([2]; Test 24: peptide 0, minomycin 10 μg/ml): 32%; survival rate ([2]; Test 24: peptide 0, minomycin 50 μg/ml): 5.2%
CCCCCCCCCCCCCCCCCC(=O)OCC(O)CO (racemic) [1-monostearoyl-rac-glycerol] | no antimicrobial activity was observed | augments the antimicrobial activity of the antimicrobial peptide | – | survival rate ([1]; Test 19: peptide 0, 1-monostearoyl-rac-glycerol 0.5 mg/ml): 116%; survival rate ([1]; Test 19: peptide 0, 1-monostearoyl-rac-glycerol 1 mg/ml): 133%; survival rate ([1]; Test 19: peptide 0, 1-monostearoyl-rac-glycerol 2 mg/ml): 98%
OCC(O)CO [glycerol, Glycerol] | no antimicrobial activity was observed | augments the antimicrobial activity of the peptide | – | –
O=C(O)CC(O)(CC(=O)O)C(=O)O [citric acid, Citric Acid] | – | – | augments the antimicrobial activity of the lactoferrin hydrolysate 1 | –
OC[C@H]1O[C@@H]2O[C@H]3[C@H](O)[C@@H](O)[C@@H](O[C@H]4[C@H](O)[C@@H](O)[C@@H](O[C@H]5[C@H](O)[C@@H](O)[C@@H](O[C@H]6[C@H](O)[C@@H](O)[C@@H](O[C@H]7[C@H](O)[C@@H](O)[C@@H](O[C@H]8[C@H](O)[C@@H](O)[C@@H](O[C@H]1[C@H](O)[C@H]2O)O[C@@H]8CO)O[C@@H]7CO)O[C@@H]6CO)O[C@@H]5CO)O[C@@H]4CO)O[C@@H]3CO [β-cyclodextrin, β-Cyclodextrin] | no antimicrobial activity was observed | augments the antimicrobial activity of the peptide | – | survival rate ([1]; Test 4: peptide 0, β-cyclodextrin 0.1 mg/ml): 100; survival rate ([1]; Test 4: peptide 0, β-cyclodextrin 1 mg/ml): 109; survival rate ([1]; Test 4: peptide 0, β-cyclodextrin 2.5 mg/ml): 88
Polyphosphoric Acid | no antimicrobial activity was observed | – | augments the antimicrobial activity of the lactoferrin hydrolysate 1 | survival rate ([1]; Test 12: lactoferrin hydrolysate 0, polyphosphoric acid 0.1 mg/ml): 140; survival rate ([1]; Test 12: lactoferrin hydrolysate 0, polyphosphoric acid 1 mg/ml): 124; survival rate ([1]; Test 12: lactoferrin hydrolysate 0, polyphosphoric acid 5 mg/ml): 111
O=C1O[C@H]([C@@H](O)CO)C(O)=C1O [ascorbic acid, Ascorbic Acid] | no antimicrobial activity was observed | – | augments the antimicrobial activity of the lactoferrin hydrolysate 1 | effect of the coexisting compound on the antimicrobial activity of the antimicrobial peptide (in words) [1, 3]: augments the antimicrobial activity of the peptide
CC(O)CO (centres unmarked) [propylene glycol, Propylene Glycol] | no antimicrobial activity was observed | augmented the antimicrobial activity of the peptide | – | –
